Data from ChEMBL document CHEMBL1126167, “Synthesis and evaluation of photoaffinity probes directed at lanosterol 14-demethylase (P-45014DM)” (Bioorg Med Chem Lett, 1992).

What was measured:
[1] = biological target: T1, Lanosterol 14-alpha demethylase (Homo sapiens, UniProt Q16850); test: Binding affinity for cytochrome P450 14DM; parameters: species or system Saccharomyces cerevisiae
T1 sequence (Q16850 whole entry): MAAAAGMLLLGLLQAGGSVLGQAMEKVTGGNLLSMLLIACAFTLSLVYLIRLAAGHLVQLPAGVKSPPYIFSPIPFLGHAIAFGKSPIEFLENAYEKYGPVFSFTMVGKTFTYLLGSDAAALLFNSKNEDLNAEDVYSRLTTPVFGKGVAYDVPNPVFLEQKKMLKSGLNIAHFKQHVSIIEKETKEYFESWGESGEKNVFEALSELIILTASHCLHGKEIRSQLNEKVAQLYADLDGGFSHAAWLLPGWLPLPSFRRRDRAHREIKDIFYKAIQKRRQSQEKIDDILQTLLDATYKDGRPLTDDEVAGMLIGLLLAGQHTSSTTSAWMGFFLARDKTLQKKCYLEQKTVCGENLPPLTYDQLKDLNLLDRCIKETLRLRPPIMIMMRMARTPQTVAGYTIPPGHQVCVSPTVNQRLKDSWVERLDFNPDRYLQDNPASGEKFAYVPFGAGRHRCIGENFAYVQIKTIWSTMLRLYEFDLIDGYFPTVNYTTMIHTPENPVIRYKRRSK

[2] = Specific activity was determined; format: functional; settings: tested as the 3H-labelled form
P45014DM = test: Photolysis after effective incorporation into P45014DM at 313 nm in phosphate buffer; format: ADME; parameters: dose or concentration left out as unconfirmed; settings: compound incorporated into P45014DM
[3] = Photolysis at 264 nm in phosphate buffer; format: ADME; parameters: dose or concentration left out as unconfirmed

Kd [1] [µM]	half-life (P45014DM) [min]	half-life [3] [min]	SMILES	Activity [2] [mCi/M]
15	–	–	[N-]=[N+]=Nc1ccc(Cn2ccnc2)cc1	–
1.4	–	–	[N-]=[N+]=Nc1ccc(C(O)Cn2ccnc2)cc1 (configuration not stated)	26.4
18	–	–	[N-]=[N+]=Nc1ccc(C(=O)Cn2ccnc2)cc1	–
–	45	2.5	[3H]C(O)(Cn1ccnc1)c1ccc(N=[N+]=[N-])cc1 (configuration not stated)	–

SMILES	Kd [1] [µM]	half-life (P45014DM) [min]	half-life [3] [min]	Activity [2] [mCi/M]
[N-]=[N+]=Nc1ccc(-n2ccnc2)cc1	25	–	–	–
